We go through 1 molecule from patent US20140314780A1, “Compositions Using Antibodies Directed to GPNMB and Uses Thereof” (Celldex Therapeutics, Inc., priority 2008, published 2014).

Each structure is given as a SMILES string.

The test system of the assay is GPNMB surface expression on SKMEL2 melanoma cells. Kind of assay: Flow cytometry of GPNMB surface expression, SKMEL2 cells. The class given is cell-based, human. Particulars: SKMEL2; CR011 (anti-GPNMB) primary antibody; MEKi (U0126) 10 uM, imatinib 20 uM, p38i (SB202190) 50 uM. As to the method: Cells were seeded in 6-well tissue culture dishes at a subconfluent density and allowed to attach overnight. The following day, cells were treated as indicated in the figures/legends, harvested with versene (Invitrogen), washed with PBS and incubated with primary antibody (10 μg/mL) diluted in staining buffer (PBS pH 7.4, 4% FBS, 0.1% sodium azide) for 30 minutes on ice. […] After incubation with primary antibody, samples were washed with staining buffer and then incubated with secondary antibody (PE-conjugated anti-human antibody; 1:100) for 30 minutes on ice. After incubation, samples were washed with staining buffer and examined on a Becton Dickinson FACSCalibur flow cytometer (BD Immunocytometry Systems, San Jose, Calif.). Data analysis was performed with Becton Dickinson Cell Quest software and the geometric mean fluorescence intensity (GeoMean) was determined for each sample.
For the data shown in Table 37, flow cytometry was performed on intact, non-permeabilized cells using the indicated primary monoclonal antibodies. […] The results are reported as GeoMeans. For the data shown in the top panel of Table 37, A375 (melanoma) or SF539 (glioblastoma) cells were treated with the indicated concentrations of MEKi (U0126), RAFKi (553013) or ERKi (FR180204) for 12, 24 or 48 hours prior to analysis. For the data shown in the bottom left panel of Table 37, SKMEL2 (melanoma) cells were treated with MEKi (U0126; 10 uM), imatinib (20 uM), p38i (p38 MAPKi SB202190; 50 uM), NH4Cl (ammonium chloride; 20 mM) or CLQ (chloroquine; 20 uM) for 48 hours prior to analysis. For the data shown in the bottom right panel of Table 37, WM2664 (melanoma) cells were treated with MON (monensin) or MMPi (GM6001) for 48 hours prior to analysis.
A general note: Flow cytometry measures light scatter and fluorescence of single cells or particles in a stream.

In the case of `N#CC(=C(/N)Sc1ccccc1N)/C(C#N)=C(\N)Sc1ccccc1N` [Mab U0126], the “GPNMB surface expression, flow cytometry GeoMean” value stood at 174.5.
